Assay results: ChEMBL document CHEMBL1131616, “TROTEC-1: a new high-affinity ligand for labeling of the dopamine transporter” (J Med Chem, 1998)

Assays:
[1] = molecular target: Sodium-dependent noradrenaline transporter (Homo sapiens, UniProt P23975); experiment: The compound was tested in vitro for binding affinity for the norepinephrine transporter (NET) using competitive binding assay.
[2] = molecular target: Sodium-dependent serotonin transporter (Homo sapiens, UniProt P31645); experiment: The compound was tested in vitro for binding affinity for the serotonin transporter (5-HTT) using competitive binding assay.
[3] = molecular target: T1, Sodium-dependent dopamine transporter (Homo sapiens, UniProt Q01959); experiment: The compound was tested in vitro for high binding affinity for the Dopamine transporter (DAT) using competitive binding assay.
[4] = molecular target: T1, Sodium-dependent dopamine transporter; experiment: The compound was tested in vitro for low binding affinity for the Dopamine transporter (DAT) using competitive binding assay.

Sodium-dependent noradrenaline transporter, sequence (P23975 whole entry): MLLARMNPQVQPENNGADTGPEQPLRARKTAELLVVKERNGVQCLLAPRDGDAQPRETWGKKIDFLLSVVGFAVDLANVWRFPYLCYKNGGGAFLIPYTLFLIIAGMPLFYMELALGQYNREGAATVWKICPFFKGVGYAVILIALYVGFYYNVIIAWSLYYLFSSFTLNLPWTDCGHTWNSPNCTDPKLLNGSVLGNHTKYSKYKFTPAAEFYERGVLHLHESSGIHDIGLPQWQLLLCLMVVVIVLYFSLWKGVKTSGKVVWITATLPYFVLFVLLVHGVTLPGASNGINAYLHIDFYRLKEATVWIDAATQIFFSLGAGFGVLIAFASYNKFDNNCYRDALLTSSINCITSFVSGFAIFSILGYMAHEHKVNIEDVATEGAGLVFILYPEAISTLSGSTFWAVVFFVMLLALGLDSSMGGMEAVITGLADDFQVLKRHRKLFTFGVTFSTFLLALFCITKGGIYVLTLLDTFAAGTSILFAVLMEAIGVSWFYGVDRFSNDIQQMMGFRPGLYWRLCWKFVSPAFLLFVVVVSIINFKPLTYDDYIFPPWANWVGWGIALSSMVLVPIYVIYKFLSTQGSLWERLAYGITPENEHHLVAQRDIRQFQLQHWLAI
Sodium-dependent serotonin transporter, sequence (P31645 whole entry): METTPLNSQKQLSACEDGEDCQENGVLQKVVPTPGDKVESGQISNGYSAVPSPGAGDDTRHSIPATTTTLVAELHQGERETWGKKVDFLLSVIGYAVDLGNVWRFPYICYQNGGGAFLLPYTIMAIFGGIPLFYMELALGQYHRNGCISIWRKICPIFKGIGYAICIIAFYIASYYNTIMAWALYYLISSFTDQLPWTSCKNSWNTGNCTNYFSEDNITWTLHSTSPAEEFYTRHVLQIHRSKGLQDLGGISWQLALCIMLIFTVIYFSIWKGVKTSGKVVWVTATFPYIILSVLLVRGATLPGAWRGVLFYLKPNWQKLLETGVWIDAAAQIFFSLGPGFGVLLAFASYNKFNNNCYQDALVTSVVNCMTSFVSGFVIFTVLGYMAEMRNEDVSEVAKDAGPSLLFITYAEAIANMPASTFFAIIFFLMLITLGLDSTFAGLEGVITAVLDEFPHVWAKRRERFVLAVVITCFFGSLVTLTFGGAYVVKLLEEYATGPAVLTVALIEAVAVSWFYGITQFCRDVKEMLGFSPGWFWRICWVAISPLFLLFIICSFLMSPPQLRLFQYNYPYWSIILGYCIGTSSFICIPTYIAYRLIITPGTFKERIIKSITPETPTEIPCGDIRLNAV
T1 sequence (Q01959 whole entry): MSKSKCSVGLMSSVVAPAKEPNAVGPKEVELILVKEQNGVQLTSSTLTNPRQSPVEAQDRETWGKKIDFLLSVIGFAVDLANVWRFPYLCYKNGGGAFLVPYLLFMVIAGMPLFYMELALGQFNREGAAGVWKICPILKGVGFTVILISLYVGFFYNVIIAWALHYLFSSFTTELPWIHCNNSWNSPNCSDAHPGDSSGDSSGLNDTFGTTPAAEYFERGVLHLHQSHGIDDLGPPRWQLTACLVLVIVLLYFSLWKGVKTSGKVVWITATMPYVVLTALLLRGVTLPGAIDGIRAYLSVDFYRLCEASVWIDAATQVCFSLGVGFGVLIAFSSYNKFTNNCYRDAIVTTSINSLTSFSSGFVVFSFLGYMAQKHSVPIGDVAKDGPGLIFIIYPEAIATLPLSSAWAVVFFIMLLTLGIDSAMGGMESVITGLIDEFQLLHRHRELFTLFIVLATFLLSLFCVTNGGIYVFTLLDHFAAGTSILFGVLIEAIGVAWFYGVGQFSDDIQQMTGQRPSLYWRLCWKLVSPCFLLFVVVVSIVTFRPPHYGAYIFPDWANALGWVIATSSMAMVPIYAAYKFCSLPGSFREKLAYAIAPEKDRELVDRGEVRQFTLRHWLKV

COC(=O)[C@H]1[C@@H](c2ccc(F)cc2)C[C@H]2CC[C@H]1N2C
IC50 [1]: 0.834 µM | IC50 [2]: 0.759 µM

CSCCSCCC(=O)OC[C@@H]1C2CCC(C[C@@H]1c1ccc(F)cc1)N2C (stereo partly specified)
IC50 [3]: 0.000227 µM | IC50 [4]: 0.00569 µM | IC50 [1]: 0.0163 µM | IC50 [2]: 0.0285 µM
